According to ChEMBL document CHEMBL1201862, “PubChem BioAssay data set” (2004):
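Dose response: 5 concentrations. Exposure: 48 h. Format: 96-well plates. Endpoint: linear interpolation; highest concentration if not reached. Here, GI50 denotes the concentration required for 50% inhibition of growth.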 Calls of active or inactive are those of the source. Cut-off read from the data, not from the text of the source: active = GI50 up to about 1.1 µM and inactive = higher.

How the values were obtained:
Test in all cases: DTP human tumour cell line panel, 48 h
[1] = tested on: HOP-18
[2] = tested on: DMS-273
[3] = tested on: SF-295
[4] = tested on: SNB-75
[5] = tested on: OVCAR-5
[6] = tested on: HOP-62
[7] = tested on: DLD-1
[8] = tested on: OVCAR-4
[9] = tested on: NCI/ADR-RES
[10] = tested on: MCF7
[11] = tested on: NCI-H226
[12] = tested on: KM-20L2
[13] = tested on: KM12
[14] = tested on: SNB-78
[15] = tested on: CAKI-1
[16] = tested on: LXFL 529
[17] = tested on: ACHN
[18] = tested on: M14
[19] = tested on: SR
[20] = tested on: MDA-MB-435

| Compound | GI50 [1] | GI50 [2] | GI50 [3] | GI50 [4] | GI50 [5] | GI50 [6] | GI50 [7] | GI50 [8] | GI50 [9] | GI50 [10] | GI50 [11] | GI50 [12] | GI50 [13] | GI50 [14] | GI50 [15] | GI50 [16] | GI50 [17] | GI50 [18] | GI50 [19] | GI50 [20] |
| --- | --- | --- | --- | --- | --- | --- | --- | --- | --- | --- | --- | --- | --- | --- | --- | --- | --- | --- | --- | --- |
| COc1cc(/C=C/C(=O)Oc2ccc(NC(C)=O)cc2)ccc1C(=O)O/C=C/c1ccccc1 | > 100 µM (inactive) | > 100 µM (inactive) | > 100 µM (inactive) | > 100 µM (inactive) | > 100 µM (inactive) | > 100 µM (inactive) | > 100 µM (inactive) | > 100 µM (inactive) | > 100 µM (inactive) | > 100 µM (inactive) | > 100 µM (inactive) | > 100 µM (inactive) | > 100 µM (inactive) | > 100 µM (inactive) |  |  |  |  |  |  |
| CC(=O)OC1CCC2(C)C(CCC3C2CCC2(C)C(c4ccc(=O)oc4)C(OC(C)=O)CC32O)C1 (configuration not stated) | 0.0125 µM (active) | 0.0125 µM (active) | 0.016 µM (active) | 0.0183 µM (active) | 0.0397 µM (active) | 0.015 µM (active) | 0.0155 µM (active) | 0.0125 µM (active) | 0.0191 µM (active) | 0.0164 µM (active) | 0.0356 µM (active) | 0.0188 µM (active) | 0.0172 µM (active) | 0.0164 µM (active) | 0.0151 µM (active) |  |  |  |  |  |
| O=C(O)C1CCCCN1c1ccccc1[N+](=O)[O-] (configuration not stated) | > 100 µM (inactive) | > 100 µM (inactive) | > 100 µM (inactive) | > 100 µM (inactive) | > 100 µM (inactive) | > 100 µM (inactive) | > 100 µM (inactive) | > 100 µM (inactive) |  |  | > 100 µM (inactive) | > 100 µM (inactive) |  | > 100 µM (inactive) | > 100 µM (inactive) | > 100 µM (inactive) | > 100 µM (inactive) | > 100 µM (inactive) | > 100 µM (inactive) |  |
| CCC(C(=O)O)c1ccc(OC)cc1 (configuration not stated) |  | > 100 µM (inactive) | > 100 µM (inactive) | > 100 µM (inactive) | > 100 µM (inactive) | > 100 µM (inactive) | > 100 µM (inactive) | > 100 µM (inactive) |  |  | > 100 µM (inactive) | > 100 µM (inactive) | > 100 µM (inactive) | > 100 µM (inactive) | > 100 µM (inactive) | > 100 µM (inactive) | > 100 µM (inactive) | > 100 µM (inactive) | > 100 µM (inactive) |  |
| COc1ccc(C[C@H](N)C(=O)N2C[C@H](CO)C[C@H](n3ccc(=O)[nH]c3=O)C2)cc1 | > 100 µM (inactive) | > 100 µM (inactive) |  |  | > 100 µM (inactive) | > 100 µM (inactive) | > 100 µM (inactive) | > 100 µM (inactive) |  |  | > 100 µM (inactive) | > 100 µM (inactive) | > 100 µM (inactive) |  | > 100 µM (inactive) | > 100 µM (inactive) | > 100 µM (inactive) | > 100 µM (inactive) | > 100 µM (inactive) |  |
| O=C=C=P(c1ccccc1)(c1ccccc1)c1ccccc1 | 21.6 µM (inactive) | 36.9 µM (inactive) | > 100 µM (inactive) | 23.5 µM (inactive) | 28.5 µM (inactive) |  | > 100 µM (inactive) | 61.2 µM (inactive) |  |  | 45.6 µM (inactive) |  | 48.9 µM (inactive) | 39.7 µM (inactive) | 59.4 µM (inactive) | 35 µM (inactive) | > 100 µM (inactive) | 80.5 µM (inactive) | 86.7 µM (inactive) |  |
| CCOc1ccc(/C(C=O)=C(\Cl)c2ccc(OC)c(OC)c2)cc1 | > 100 µM (inactive) | > 100 µM (inactive) | 79.6 µM (inactive) |  |  |  | > 100 µM (inactive) |  |  |  | > 100 µM (inactive) | > 100 µM (inactive) |  | > 100 µM (inactive) | > 100 µM (inactive) | > 100 µM (inactive) | > 100 µM (inactive) | > 100 µM (inactive) |  |  |
| Clc1ccc(C[P+](c2ccccc2)(c2ccccc2)c2ccccc2)c(Cl)c1 |  | 1.93 µM (inactive) | 3.08 µM (inactive) | 2.77 µM (inactive) | 2.37 µM (inactive) | 2.79 µM (inactive) |  | 4.04 µM (inactive) |  |  | 2.34 µM (inactive) | 2.61 µM (inactive) | 1.69 µM (inactive) | 3.42 µM (inactive) |  | 1.67 µM (inactive) | 10 µM (inactive) | 3.18 µM (inactive) | 1.89 µM (inactive) |  |
| COC(=O)C1C(C)N1C (configuration not stated) |  | > 100 µM (inactive) |  | > 100 µM (inactive) |  | > 100 µM (inactive) | > 100 µM (inactive) | > 100 µM (inactive) |  |  | > 100 µM (inactive) |  | > 100 µM (inactive) | > 100 µM (inactive) |  | > 100 µM (inactive) |  | > 100 µM (inactive) |  |  |
| O=C1c2ccccc2C(=O)N1CC(O)COc1cccc2ccccc12 (configuration not stated) |  |  | 98.2 µM (inactive) |  | > 100 µM (inactive) | > 100 µM (inactive) |  |  | > 100 µM (inactive) | > 100 µM (inactive) |  |  |  |  | 16.2 µM (inactive) |  | 76.4 µM (inactive) | > 100 µM (inactive) | > 100 µM (inactive) | > 100 µM (inactive) |
| O=C(/C=N/c1ccccc1S)c1ccco1 | 17.7 µM (inactive) | 11.2 µM (inactive) | 5.08 µM (inactive) |  |  | 3.66 µM (inactive) | 6.56 µM (inactive) | 13.4 µM (inactive) |  |  |  | 14.5 µM (inactive) | 16.3 µM (inactive) | 16.9 µM (inactive) | 19.6 µM (inactive) |  |  |  |  |  |
| CCOC(=O)NC(Nc1ccc(Cl)cn1)(C(F)(F)F)C(F)(F)F |  |  |  | > 100 µM (inactive) | > 100 µM (inactive) | > 100 µM (inactive) |  |  |  | > 100 µM (inactive) | > 100 µM (inactive) |  | > 100 µM (inactive) |  |  |  | > 100 µM (inactive) | > 100 µM (inactive) | > 100 µM (inactive) | > 100 µM (inactive) |
| OC[C@H]1O[C@@H](n2cnc3cncnc32)[C@H](O)[C@@H]1O [NEBULARINE] | 2.62 µM (inactive) | 0.59 µM (active) | 2 µM (inactive) | 0.628 µM (active) | 1.4 µM (inactive) | 2.45 µM (inactive) | 0.536 µM (active) | 1.12 µM (inactive) | 0.69 µM (active) | 0.307 µM (active) | 1.34 µM (inactive) | 1.04 µM (active) | 1.01 µM (active) | 4.02 µM (inactive) | 0.423 µM (active) |  |  |  |  |  |
| CCOC(=O)NC(Nc1ncccn1)(C(=O)OCC)C(F)(F)F (configuration not stated) |  |  | > 100 µM (inactive) | > 100 µM (inactive) | > 100 µM (inactive) |  |  | > 100 µM (inactive) | > 100 µM (inactive) | > 100 µM (inactive) |  |  | > 100 µM (inactive) |  | > 100 µM (inactive) |  | > 100 µM (inactive) | > 100 µM (inactive) | > 100 µM (inactive) | > 100 µM (inactive) |
